Test results from ChEMBL document CHEMBL1201862, “PubChem BioAssay data set” (2004).
The source made the active and inactive calls.

What was measured:
Aspartyl aminopeptidase = Aspartyl aminopeptidase (Plasmodium falciparum 3D7, UniProt Q8I2J3)
Procathepsin L = Procathepsin L (Homo sapiens, UniProt P07711)
[1] = target: Alkaline phosphatase, placental type (Homo sapiens, UniProt P05187); assay: PLAP enzyme inhibitors, confirmation, biochemical, luminescence (AID 1512); assay type: functional
Streptococcus [2] = assay: Luminescence Microorganism-Based Dose Response Follow up to Identify Compounds Cytotoxic to Streptococcus. [Related pubchem assays: 1677 (Project Summary), 1915, 1914, 1902 (Retest at Dose), 1900 (Counter Screen), 1662 (Primary HTS)]; assay type: functional, organism-based
Streptokinase A = target: T1, Streptokinase A (Streptococcus pyogenes serotype M1, UniProt P10520); assay: S. pyogenes streptokinase expression inhibitors, potency, dose response, plasminogen activation absorbance, OD405 (AID 1914); assay type: functional, Streptococcus pyogenes M1 GAS;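 also: secreted streptokinase activity via plasminogen activation per viability signal from cell pellet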
T1 sequence (P10520 whole entry): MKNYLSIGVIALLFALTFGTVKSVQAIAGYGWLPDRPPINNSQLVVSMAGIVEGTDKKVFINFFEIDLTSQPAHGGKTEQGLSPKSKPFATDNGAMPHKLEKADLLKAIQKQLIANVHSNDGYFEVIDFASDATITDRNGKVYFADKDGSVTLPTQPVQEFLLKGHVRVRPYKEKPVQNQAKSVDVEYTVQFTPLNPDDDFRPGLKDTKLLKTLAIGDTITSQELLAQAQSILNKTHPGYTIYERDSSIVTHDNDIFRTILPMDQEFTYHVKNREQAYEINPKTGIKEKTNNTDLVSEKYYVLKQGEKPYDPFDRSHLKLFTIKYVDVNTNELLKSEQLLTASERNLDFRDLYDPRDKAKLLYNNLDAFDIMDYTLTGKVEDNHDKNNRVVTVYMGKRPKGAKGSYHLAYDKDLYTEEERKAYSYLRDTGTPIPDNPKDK

Streptococcus [3] = assay: Group A Streptococcus viability loss, dose response, counter-screen for streptokinase expression inhibitor project, luminescence, BacTiterGlo (AID 1915); assay type: functional, organism-based;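 also: potency for reduction of bacterial viability or growth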
[4] = test system: Streptococcus sp. 'group A'; assay: growth inhibition of control SK(-) GAS strain, dose response, counter-screen for streptokinase expression inhibitor project, luminescence, kanamycin, BacTiterGlo, confirmation (AID 1900); assay type: functional, organism-based
[5] = target: T2, Short transient receptor potential channel 4 (Mus musculus, UniProt Q9QUQ5); assay: mouse TRPC4 channel inhibitors, dose response, cell-based, HEK293 TRPC4/mu-opioid, Fluo-4 calcium (AID 434942); assay type: functional;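 also: potency of inhibitors blocking the TRPC4 calcium response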
T2 sequence (Q9QUQ5 whole entry): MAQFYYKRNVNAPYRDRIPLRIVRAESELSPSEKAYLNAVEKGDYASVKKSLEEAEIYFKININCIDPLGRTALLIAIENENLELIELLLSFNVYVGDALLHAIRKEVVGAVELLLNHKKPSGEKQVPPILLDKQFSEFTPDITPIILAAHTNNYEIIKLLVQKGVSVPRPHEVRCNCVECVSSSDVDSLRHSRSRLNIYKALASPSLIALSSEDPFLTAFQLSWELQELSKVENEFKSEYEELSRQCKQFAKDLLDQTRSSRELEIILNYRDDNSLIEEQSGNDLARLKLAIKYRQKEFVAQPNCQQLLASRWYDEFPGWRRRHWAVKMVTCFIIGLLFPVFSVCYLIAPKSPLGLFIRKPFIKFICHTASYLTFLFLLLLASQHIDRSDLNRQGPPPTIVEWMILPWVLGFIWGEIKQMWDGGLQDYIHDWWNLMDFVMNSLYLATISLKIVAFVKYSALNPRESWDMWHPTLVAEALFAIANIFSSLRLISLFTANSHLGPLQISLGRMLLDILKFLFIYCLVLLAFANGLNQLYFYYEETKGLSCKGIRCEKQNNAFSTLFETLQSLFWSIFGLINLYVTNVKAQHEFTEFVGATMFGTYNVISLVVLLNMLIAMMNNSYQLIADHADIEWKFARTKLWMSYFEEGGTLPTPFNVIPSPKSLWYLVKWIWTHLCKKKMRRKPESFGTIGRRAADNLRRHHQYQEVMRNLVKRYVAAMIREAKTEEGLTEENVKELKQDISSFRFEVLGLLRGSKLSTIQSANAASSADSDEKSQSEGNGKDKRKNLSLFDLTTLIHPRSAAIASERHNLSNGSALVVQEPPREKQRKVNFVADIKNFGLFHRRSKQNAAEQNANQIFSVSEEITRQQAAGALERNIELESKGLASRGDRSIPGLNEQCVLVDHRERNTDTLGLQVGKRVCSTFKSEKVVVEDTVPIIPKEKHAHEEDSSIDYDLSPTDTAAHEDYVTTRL

[6] = target: G-protein coupled receptor 35 (Homo sapiens, UniProt Q9HC97); assay: GPR35 antagonists blocking zaprinast-driven arrestin recruitment, primary screen, imaging, U2OS, beta-arrestin-GFP, zaprinast agonist (AID 2058); assay type: functional;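 also: antagonist potency meaning inhibition of agonist-induced arrestin redistribution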
Chain of G-protein coupled receptor 35 (Q9HC97 whole entry): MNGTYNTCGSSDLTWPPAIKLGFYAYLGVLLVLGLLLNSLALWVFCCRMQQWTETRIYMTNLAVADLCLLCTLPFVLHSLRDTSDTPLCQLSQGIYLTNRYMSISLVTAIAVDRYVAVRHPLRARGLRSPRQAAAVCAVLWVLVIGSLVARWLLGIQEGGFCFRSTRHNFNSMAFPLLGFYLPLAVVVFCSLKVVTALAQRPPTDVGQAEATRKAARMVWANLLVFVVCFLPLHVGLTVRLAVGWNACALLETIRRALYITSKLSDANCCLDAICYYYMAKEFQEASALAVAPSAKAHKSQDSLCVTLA

Protein Rev = Protein Rev (Human immunodeficiency virus type 1 group M subtype B (isolate WMJ22)(HIV-1), UniProt P05866); assay: HIV-1 Rev-RRE RNA binding disruptors, dose response, biochemical, protein-RNA interaction (AID 842); parameters: species or system Human immunodeficiency virus 1
Chain of Protein Rev (P05866 whole entry): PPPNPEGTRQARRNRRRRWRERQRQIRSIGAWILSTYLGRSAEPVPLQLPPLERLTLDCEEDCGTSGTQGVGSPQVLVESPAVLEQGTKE

[7] = Counterscreen for IDE inhibitors: Luminescence-based cell-based high throughput dose response assay to identify compounds that are cytotoxic to HEK cells. [Related pubchem assays: 434962 (Primary screen (IDE inhibitors in singlicate)), 449730 (Counterscreen (Cytotoxicity in triplicate)), 435028 (Confirmation (IDE inhibitors in triplicate)) …; assay type: functional; details: HEK293
Insulin-degrading enzyme = target: T3, Insulin-degrading enzyme (Homo sapiens, UniProt P14735); assay: Dose Response: Fluorescence polarization-based cell-based high throughput dose response assay for inhibitors of insulin-degrading enzyme (IDE). [Related pubchem assays: 434962 (Primary screen (IDE inhibitors in singlicate)), 449730 (Counterscreen (Cytotoxicity in triplicate)), 435028 (Confirmation (IDE inhibitors in triplicate)), 434984 (Summary …; assay type: functional
T3 sequence (P14735 whole entry): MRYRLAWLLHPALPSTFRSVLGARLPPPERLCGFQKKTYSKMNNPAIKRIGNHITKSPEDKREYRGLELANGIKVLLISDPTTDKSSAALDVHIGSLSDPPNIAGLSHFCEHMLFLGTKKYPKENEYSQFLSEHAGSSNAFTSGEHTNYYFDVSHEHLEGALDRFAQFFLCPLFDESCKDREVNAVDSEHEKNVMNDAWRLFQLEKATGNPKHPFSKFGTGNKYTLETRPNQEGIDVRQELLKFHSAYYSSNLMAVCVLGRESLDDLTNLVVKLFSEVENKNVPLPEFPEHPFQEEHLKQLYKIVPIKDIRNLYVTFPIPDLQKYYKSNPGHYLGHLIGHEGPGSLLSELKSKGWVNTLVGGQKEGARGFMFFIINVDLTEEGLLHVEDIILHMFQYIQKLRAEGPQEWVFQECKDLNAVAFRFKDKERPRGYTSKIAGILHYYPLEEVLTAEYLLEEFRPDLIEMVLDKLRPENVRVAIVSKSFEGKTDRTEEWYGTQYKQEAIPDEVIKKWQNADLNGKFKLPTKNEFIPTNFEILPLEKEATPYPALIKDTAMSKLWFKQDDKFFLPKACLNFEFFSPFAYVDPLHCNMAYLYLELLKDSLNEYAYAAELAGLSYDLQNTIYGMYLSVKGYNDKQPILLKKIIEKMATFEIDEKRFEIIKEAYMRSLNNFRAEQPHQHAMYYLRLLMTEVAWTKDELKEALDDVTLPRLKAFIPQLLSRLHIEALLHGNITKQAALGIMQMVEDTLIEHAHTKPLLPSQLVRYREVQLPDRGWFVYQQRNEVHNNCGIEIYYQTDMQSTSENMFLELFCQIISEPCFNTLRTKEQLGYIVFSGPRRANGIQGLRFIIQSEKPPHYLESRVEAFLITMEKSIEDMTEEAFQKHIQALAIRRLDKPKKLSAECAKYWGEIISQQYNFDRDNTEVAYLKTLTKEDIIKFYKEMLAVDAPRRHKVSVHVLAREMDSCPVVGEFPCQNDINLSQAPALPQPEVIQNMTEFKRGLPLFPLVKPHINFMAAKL

[8] = target: Voltage-dependent T-type calcium channel subunit alpha-1H (Homo sapiens, UniProt O95180); assay type: functional;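 also: channel activity triggered by adding a high calcium stimulation buffer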
Chain of Voltage-dependent T-type calcium channel subunit alpha-1H (O95180 whole entry): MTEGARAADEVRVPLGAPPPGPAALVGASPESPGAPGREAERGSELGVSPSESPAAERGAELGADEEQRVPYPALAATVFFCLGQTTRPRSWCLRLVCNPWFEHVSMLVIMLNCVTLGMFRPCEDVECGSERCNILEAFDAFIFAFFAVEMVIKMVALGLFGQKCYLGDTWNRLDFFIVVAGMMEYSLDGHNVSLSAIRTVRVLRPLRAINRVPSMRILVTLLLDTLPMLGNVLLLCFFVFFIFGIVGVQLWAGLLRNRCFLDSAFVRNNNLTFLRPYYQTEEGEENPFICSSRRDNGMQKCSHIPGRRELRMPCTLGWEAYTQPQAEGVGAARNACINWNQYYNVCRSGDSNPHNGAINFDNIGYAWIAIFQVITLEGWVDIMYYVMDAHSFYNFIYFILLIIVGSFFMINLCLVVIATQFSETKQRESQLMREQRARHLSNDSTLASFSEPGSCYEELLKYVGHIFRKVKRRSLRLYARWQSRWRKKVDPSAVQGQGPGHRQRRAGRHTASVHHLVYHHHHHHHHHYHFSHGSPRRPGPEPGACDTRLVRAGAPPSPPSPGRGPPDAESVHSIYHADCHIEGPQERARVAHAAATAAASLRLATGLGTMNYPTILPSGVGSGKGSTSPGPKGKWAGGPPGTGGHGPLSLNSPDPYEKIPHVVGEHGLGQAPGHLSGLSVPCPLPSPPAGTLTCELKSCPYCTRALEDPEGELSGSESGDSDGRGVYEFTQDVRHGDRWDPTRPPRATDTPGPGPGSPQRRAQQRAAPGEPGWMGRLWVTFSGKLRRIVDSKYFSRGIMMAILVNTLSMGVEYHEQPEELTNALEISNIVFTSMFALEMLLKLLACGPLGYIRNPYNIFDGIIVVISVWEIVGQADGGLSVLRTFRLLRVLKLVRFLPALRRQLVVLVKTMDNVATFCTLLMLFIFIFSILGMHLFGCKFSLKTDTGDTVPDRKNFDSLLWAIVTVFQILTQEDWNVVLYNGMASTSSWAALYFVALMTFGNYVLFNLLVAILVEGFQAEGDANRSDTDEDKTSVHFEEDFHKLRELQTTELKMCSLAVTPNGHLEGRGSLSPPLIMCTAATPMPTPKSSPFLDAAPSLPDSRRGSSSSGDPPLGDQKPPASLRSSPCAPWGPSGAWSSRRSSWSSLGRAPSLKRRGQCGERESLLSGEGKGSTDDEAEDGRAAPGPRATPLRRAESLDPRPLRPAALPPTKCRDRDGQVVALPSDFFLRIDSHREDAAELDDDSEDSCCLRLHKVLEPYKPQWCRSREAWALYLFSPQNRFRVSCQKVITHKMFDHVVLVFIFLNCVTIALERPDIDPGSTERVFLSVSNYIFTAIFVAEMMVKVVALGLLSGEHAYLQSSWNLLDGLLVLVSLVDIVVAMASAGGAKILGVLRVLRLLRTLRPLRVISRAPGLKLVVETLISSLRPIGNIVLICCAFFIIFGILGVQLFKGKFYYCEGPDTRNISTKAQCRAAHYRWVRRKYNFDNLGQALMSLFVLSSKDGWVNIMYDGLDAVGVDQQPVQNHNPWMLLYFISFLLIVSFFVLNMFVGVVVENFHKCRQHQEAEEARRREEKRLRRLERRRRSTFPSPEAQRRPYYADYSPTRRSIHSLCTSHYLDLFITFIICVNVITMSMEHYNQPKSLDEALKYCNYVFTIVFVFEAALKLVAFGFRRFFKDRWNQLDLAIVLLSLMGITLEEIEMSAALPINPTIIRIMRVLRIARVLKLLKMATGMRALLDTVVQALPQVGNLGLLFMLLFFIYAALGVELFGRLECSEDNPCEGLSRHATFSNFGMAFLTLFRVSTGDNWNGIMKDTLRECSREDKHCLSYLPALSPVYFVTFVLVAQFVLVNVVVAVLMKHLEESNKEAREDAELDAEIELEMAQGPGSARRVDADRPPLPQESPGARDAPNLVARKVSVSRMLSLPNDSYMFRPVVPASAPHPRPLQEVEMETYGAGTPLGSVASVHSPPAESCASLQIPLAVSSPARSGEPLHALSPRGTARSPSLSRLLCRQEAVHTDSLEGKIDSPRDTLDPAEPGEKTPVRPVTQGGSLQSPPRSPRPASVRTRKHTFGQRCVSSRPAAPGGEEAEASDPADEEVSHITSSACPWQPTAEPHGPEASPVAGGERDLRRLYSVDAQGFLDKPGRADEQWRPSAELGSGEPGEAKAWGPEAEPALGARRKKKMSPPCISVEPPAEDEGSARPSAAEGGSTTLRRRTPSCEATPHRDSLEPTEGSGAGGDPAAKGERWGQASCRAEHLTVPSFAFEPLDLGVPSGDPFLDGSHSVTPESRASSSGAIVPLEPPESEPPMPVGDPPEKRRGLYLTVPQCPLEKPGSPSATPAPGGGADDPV

[9] = target: Melanin-concentrating hormone receptor 1 (Homo sapiens, UniProt Q99705); assay: Fluorescence-based counterscreen for antagonists of the G-protein coupled receptor 7 (GPR7): cell-based high throughput dose response assay to identify antagonists of the melanin-concentrating hormone receptor 1 (MCHR1).; assay type: functional
[10] = target: Muscarinic acetylcholine receptor M1 (Rattus norvegicus, UniProt P08482); assay: Discovery of novel allosteric modulators of the M1 muscarinic receptor: Agonist NMS binding at M1. [Related pubchem assays: 626 ]
[11] = target: Muscarinic acetylcholine receptor M5 (Homo sapiens, UniProt P08912); assay: (§1) Discovery of novel allosteric modulators of the M1 muscarinic receptor: Agonist NMS competition at M5. [Related pubchem assays: 1488 (Discovery of novel allosteric modulators of the M1 muscarinic receptor: Agonist Confirmation Assay), 626 (Discovery of Novel Allosteric Modulators of the M1 Muscarinic Receptor: Agonist Primary Screen)]; assay type: functional
[12] = target: Muscarinic acetylcholine receptor M3 (Homo sapiens, UniProt P20309); assay: as §1, with “M3.” for “M5.”; assay type: functional
[13] = target: Muscarinic acetylcholine receptor M2 (Homo sapiens, UniProt P08172); assay: Discovery of novel allosteric modulators of the M1 muscarinic receptor: Agonist NMS competition at M2. [Related pubchem assays: 626 (Discovery of Novel Allosteric Modulators of the M1 Muscarinic Receptor: Agonist Primary Screen), 1488 (Discovery of novel allosteric modulators of the M1 muscarinic receptor: Agonist Confirmation Assay)]; assay type: functional
Chain of Muscarinic acetylcholine receptor M2 (P08172 whole entry): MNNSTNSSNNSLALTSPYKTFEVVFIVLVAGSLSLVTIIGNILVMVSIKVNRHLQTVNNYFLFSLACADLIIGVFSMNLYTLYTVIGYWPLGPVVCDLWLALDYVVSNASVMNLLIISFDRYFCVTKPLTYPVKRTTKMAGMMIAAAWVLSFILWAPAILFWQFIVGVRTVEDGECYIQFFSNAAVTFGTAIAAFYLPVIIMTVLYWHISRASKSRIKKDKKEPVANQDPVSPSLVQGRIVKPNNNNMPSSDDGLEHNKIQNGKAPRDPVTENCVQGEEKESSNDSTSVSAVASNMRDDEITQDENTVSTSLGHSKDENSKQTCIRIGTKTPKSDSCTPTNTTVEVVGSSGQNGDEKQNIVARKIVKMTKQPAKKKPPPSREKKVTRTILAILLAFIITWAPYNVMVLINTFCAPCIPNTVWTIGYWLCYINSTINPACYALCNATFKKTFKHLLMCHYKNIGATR

[14] = target: Muscarinic acetylcholine receptor M4 (Rattus norvegicus, UniProt P08485); assay: Discovery of novel allosteric modulators of the M1 muscarinic receptor: Agonist NMS competition at M4. [Related pubchem assays: 626, 1488, 1741 ]; assay type: functional
[15] = polyadenylation inhibitors in yeast reporter, dose response, luminescence, S. cerevisiae SKY197-pL101 (AID 2525); assay type: functional, cell-based
[16] = target: Heat shock cognate 71 kDa protein (Homo sapiens, UniProt P11142); assay: In Vitro Hsc70 Dose Response Fluorescence Polarization Assay. [Related pubchem assays: 1072 ]
Chain of Heat shock cognate 71 kDa protein (P11142 whole entry): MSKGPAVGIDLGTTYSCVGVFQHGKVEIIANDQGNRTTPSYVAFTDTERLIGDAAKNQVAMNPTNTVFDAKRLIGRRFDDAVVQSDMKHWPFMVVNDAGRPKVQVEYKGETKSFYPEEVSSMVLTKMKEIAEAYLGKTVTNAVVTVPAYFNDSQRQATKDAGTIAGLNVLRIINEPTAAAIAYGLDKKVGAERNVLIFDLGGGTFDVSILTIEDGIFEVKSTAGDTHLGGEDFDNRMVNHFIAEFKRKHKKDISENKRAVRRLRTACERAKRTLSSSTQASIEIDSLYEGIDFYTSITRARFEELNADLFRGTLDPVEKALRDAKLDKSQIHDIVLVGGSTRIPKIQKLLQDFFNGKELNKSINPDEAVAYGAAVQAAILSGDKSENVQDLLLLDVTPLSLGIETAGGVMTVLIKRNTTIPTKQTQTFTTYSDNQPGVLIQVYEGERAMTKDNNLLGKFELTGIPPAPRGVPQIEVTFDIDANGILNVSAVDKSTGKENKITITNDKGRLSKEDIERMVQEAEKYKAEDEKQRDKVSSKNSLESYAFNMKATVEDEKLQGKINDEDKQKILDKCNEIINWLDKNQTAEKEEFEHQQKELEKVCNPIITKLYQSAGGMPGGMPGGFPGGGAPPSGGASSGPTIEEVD

[17] = target: Glyceraldehyde-3-phosphate dehydrogenase (Homo sapiens, UniProt P04406)

Chain of Aspartyl aminopeptidase (Q8I2J3 whole entry): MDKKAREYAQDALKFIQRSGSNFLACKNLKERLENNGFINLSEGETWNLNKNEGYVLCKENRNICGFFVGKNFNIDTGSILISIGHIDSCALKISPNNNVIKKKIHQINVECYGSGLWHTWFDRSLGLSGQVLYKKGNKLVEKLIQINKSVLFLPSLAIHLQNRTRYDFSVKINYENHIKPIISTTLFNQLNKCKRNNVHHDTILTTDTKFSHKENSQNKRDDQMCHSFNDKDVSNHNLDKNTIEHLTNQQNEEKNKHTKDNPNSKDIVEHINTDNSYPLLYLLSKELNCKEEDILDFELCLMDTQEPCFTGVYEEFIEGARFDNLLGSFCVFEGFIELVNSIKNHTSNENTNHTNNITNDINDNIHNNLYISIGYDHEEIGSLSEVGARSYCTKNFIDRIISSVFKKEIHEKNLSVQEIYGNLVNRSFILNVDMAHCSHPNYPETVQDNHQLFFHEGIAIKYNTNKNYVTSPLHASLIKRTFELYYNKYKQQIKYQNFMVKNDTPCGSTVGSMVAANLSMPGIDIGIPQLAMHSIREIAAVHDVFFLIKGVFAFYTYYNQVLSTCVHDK
Chain of Alkaline phosphatase, placental type (P05187 whole entry): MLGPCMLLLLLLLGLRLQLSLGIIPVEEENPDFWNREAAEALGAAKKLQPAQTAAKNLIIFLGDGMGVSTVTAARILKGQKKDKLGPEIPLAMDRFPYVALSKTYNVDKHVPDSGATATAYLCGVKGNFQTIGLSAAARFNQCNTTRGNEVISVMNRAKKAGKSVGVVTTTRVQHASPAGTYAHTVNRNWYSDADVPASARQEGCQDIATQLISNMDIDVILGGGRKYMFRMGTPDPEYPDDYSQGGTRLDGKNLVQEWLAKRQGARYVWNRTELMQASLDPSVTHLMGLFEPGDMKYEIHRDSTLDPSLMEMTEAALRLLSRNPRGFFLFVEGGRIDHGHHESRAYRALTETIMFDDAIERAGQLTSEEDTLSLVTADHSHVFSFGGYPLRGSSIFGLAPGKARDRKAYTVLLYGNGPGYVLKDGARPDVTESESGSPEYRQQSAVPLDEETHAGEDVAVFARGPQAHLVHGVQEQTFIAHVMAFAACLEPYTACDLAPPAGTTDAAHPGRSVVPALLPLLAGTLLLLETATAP

O=C(NCc1cccnc1)NC1(C(F)(F)F)Oc2ccc(Cl)cc2O1 (configuration not stated)
IC50 (Aspartyl aminopeptidase): 1.58 µM (active) | IC50 (Procathepsin L): > 59.6 µM (not active) | IC50 [1]: 8.54 µM (active)

COCc1cc(Sc2c(Cl)cccc2Cl)nc(-c2ccccc2)n1
EC50 (Streptococcus [2]): > 500 µM (not active) | EC50 (Streptokinase A): 9.31 µM (active) | EC50 (Streptococcus [3]): > 150 µM (not active) | EC50 [4]: 8.22 µM (active)

COc1ccc2nc(C)cc(NCc3ccc(F)cc3)c2c1
EC50 [5]: 5.96 µM (active) | IC50 [6]: 2.6 µM (active)

CC1=NOC(=O)/C1=C/c1ccc(N(C)C)cc1
IC50 (Protein Rev): 2.86 µM (active)

Cn1c2ccccc2c2cc(/C=C(\NC(=O)c3ccccc3)C(=O)NCC(=O)O)ccc21
IC50 [7]: > 55.7 µM (not active) | IC50 (Insulin-degrading enzyme): 42.5 µM (not active)

C=CCOc1c(Br)cc(CNc2nccs2)cc1OC
EC50 [8]: 6.12 µM (active)

Cc1ccccc1CN1C[C@@H]2C[C@@H](c3c[nH]nc3-c3ccc(F)cc3)N3CCC[C@@]23C1=O
IC50 [9]: 25.4 µM (not active)

CCOC(=O)N1CCC(NCCNC(=O)c2ccccc2)CC1
EC50 [10]: 36.5 µM (inconclusive) | EC50 [11]: 64.6 µM (inconclusive) | EC50 [12]: 12.4 µM (inconclusive) | EC50 [13]: 28 µM (inconclusive) | EC50 [14]: 21.4 µM (inconclusive)

O=C(O)CN1C(=O)/C(=C\c2ccc(N3CCCCC3)o2)SC1=S
EC50 [15]: 12.4 µM (active)

Nc1ncnc2c1ncn2[C@@H]1O[C@H](COP(=O)(O)OP(=O)(O)O)[C@@H](O)[C@H]1O [ADENOSINE DIPHOSPHATE]
IC50 [16]: 0.28 µM (active) | IC50 [17]: > 5 µM (inconclusive)
